# Read-outs that look alike come from different tables or passages of the source.
# How the values were obtained:
# [1] = target: T1, α-chymotrypsin (bovine pancreatic) (Bos taurus, UniProt P00766); assay: chromogenic protease inhibition assay, absorbance at […] nm; type: biochemical
# T1 construct: native enzyme from bovine pancreas, commercial, used as received
# [2] = target: T1, α-chymotrypsin (bovine pancreatic); assay: biochemical; parameters: alpha-chymotrypsin inhibition, SAAPFpNA (100 uM) hydrolysis, absorbance at 410 nm, 25 °C, pH 7.8
# Procedure: Bovine pancreatic α-chymotrypsin was purchased from Sigma-Aldrich (C4129) and used as received. Enzyme solutions were kept on ice during the experiments. The molecular mass of α-chymotrypsin was taken as 25 kDa. N-Succinyl-L-alanine-L-alanine-L-proline-L-phenylalanine-p-nitroanilide (SAAPFpNA) was purchased from Sigma-Aldrich (S7388), prepared as a 10 mM stock solution in DMSO, and stored at − 30 °C. A microbial chymostatin, a mixture of chymostatin A–C, was purchased from Peptide Institute (4063) and used as a positive control. DMSO for biochemical research was purchased from Nacalai and used as received. Other reagents were purchased from Nacalai and used as received. The concentration–response curves were plotted and IC50 values were calculated by GraphPad Prism 8 software using a sigmoidal concentration–response curve analysis with variable slope. Absorbance was measured with a JASCO V-660 spectrometer at 25 °C. According to the reported procedure, the assay was performed in Tris–HCl buffer (80 mM, pH 7.8) containing α-chymotrypsin (6 nM, final concentration) and CaCl2 (10 mM, final concentration). After 30 min of incubation with the test compound at 25 °C, the enzymatic reaction was initiated by adding SAAPFpNA (100 μM, final concentration) to give a final volume of 700 μL. Reaction progress was monitored by absorbance at 410 nm at 25 °C for 5 min. The final concentration of DMSO was 3% (v/v). The prepared Ugi adducts have a diamide motif and were therefore subjected to a protease inhibition assay. Protease inhibitors have received increasing attention for their therapeutic potential against respiratory virus infections including severe acute respiratory syndrome coronavirus 2 (SARS-CoV-2)[34],[35]. The inhibitory activity of the Ugi adducts was determined in the presence of 6 nM α-chymotrypsin and 100 μM succinyl-Ala-Ala-Pro-Phe-p-nitroanilide[36]. […] Thus, the proposed engineering method, although preliminary, can be used to create novel candidates for α-chymotrypsin inhibitors. Further structural optimization, such as removal of the benzyl group on the amide nitrogen, construction of a dipeptide motif, and installation of an aromatic amino acid residue at the C-terminal of dipeptides[37] will improve the inhibitory activities of the Ugi adducts and will be reported in due course. The molecular weights of the synthesized plant product-like molecules were in the range of 492.70–1011.57 g mol^−1, which corresponds to the category of beyond the rule of five (bRo5)[38], or middle-molecules. Therefore, the present chemical hybridization method could be used to construct a small library of middle-molecules mimicking natural products, which is useful for the discovery of peptidic modulators of protein–protein interactions. Ongoing biological evaluations of the present molecules will unveil their specific pharmaceutical potential.
# [3] = target: T1, α-chymotrypsin (bovine pancreatic); assay: chromogenic protease inhibition assay, absorbance at […] nm; type: biochemical; conditions: 100 μM SAAPFpNA, 6 nM enzyme, 80 mM Tris-HCl pH 7.8, 10 mM CaCl2, 25 °C, 30 min preincubation, 3% DMSO
structure (smiles),measurement,setting,value
"CC(C)=C1C[C@@H]2[C@@H](CCC(C)(C(=O)NC3CCCCC3)N(C(=O)CCl)c3ccc4ccc5cccc6ccc3c4c56)[C@]2(C)CC1=O (stereo partly shown) [compound 7, Ugi adduct 7]",IC50,[1],3.1 ± 0.1 µM
NCc1ccccc1 [Benzylamine],inhibition at 10 µM,[2]; read-out: % Inhibition (10 μM),7 ± 1.4%
"Cc1ccc(S(=O)(=O)CNC(=O)C(c2ccccc2)N(Cc2ccccc2)C(=O)CCl)cc1 (stereo not shown) [1a, N-Benzyl-2-chloro-N-(2-oxo-1-phenyl-2-((tosylmethyl)amino)ethyl)acetamide]",inhibition at 10 µM,[2],4.7 ± 1.1%
"CCCCCC[C@@H](O)C/C=C\CCCCCCCC(=O)N(Cc1ccccc1)C(CC(C)CCC=C(C)C)C(=O)NC1CCCCC1 (stereo partly shown) [8a, Ugi adduct 8a]",IC50,[1],7.3 ± 0.6 µM
"Cc1ccc(S(=O)(=O)CNC(=O)C2(N(Cc3ccccc3)C(=O)CCl)CCCC2)cc1 [1f, 1-(N-Benzyl-2-chloroacetamido)-N-(tosylmethyl)cyclopentane-1-carboxamide]",inhibition at 10 µM,[2],7.1 ± 1%
"CCCCCC[C@@H](O)C/C=C\CCCCCCCC(=O)N(Cc1ccccc1)C(C(=O)NC1CCCCC1)c1ccccc1 (stereo partly shown) [compound 9, Ugi adduct 9]",IC50,[1],7.9 ± 0.5 µM
"CC(C)=C1C[C@@H]2[C@@H](CCC(C)(C(=O)NC3CCCCC3)N(Cc3ccccc3)C(=O)CCl)[C@]2(C)CC1=O (mixture of isomers) [compound 4, Ugi adduct 4]",% Inhibition (10 μM)^a,[3],3.1 ± 0.9%
"O=C(NC1CCCCC1)C(c1ccccc1)N(Cc1ccccc1)C(=O)C1CCCCC1 (stereo not shown) [1i, N-Benzyl-N-(2-(cyclohexylamino)-2-oxo-1-phenylethyl)cyclohexanecarboxamide]",inhibition at 10 µM,[2],3.8 ± 0.4%
"CC(=O)N(Cc1ccccc1)C(C)(CC[C@@H]1[C@H]2CC(=C(C)C)C(=O)C[C@@]12C)C(=O)NC1CCCCC1 (mixture of isomers) [compound 5, Ugi adduct 5]",% Inhibition (10 μM)^a,[3],4.2 ± 1.7%
"CCCCCC[C@@H](O)C/C=C\CCCCCCCC(=O)O[C@@H](C/C=C\CCCCCCCC(=O)N(Cc1ccccc1)C(CC(C)CCC=C(C)C)C(=O)NC1CCCCC1)CCCCCC (stereo partly shown) [8b, Ugi adduct 8b]",IC50,[1],13.4 ± 1.3 µM
"CC(C)C(C(=O)NC1CCCCC1)N(Cc1ccccc1)C(=O)CCl (stereo not shown) [1c, 2-(N-Benzyl-2-chloroacetamido)-N-cyclohexyl-3-methylbutanamide]",inhibition at 10 µM,[2],4.4 ± 2%
CC(=O)CC[C@@H]1[C@H]2CC(=C(C)C)C(=O)C[C@@]12C [Curcumenone (6)],inhibition at 10 µM,[2]; read-out: % Inhibition (10 μM),7.8 ± 1.2%
"CCCCCC[C@@H](O)C/C=C\CCCCCCCC(=O)N(Cc1ccccc1)C(C)(CC[C@@H]1[C@H]2CC(=C(C)C)C(=O)C[C@@]12C)C(=O)NC1CCCCC1 (mixture of isomers) [compound 10, Ugi adduct 10]",IC50,[1],7.7 ± 0.6 µM
"CC(C)=CCCC(C)CC(C(=O)NC1CCCCC1)N(Cc1ccccc1)C(=O)CC[C@@H](C)[C@H]1CC[C@H]2[C@@H]3[C@@H](O)C[C@@H]4C[C@H](O)CC[C@]4(C)[C@H]3CC[C@]12C (stereo partly drawn) [1j, 2-((R)-N-Benzyl-4-((3R,5S,7S,8R,9S,10S,13R,14S,17R)-3,7-dihydroxy-10,13-dimethylhexadecahydro-1H-cyclopenta[a]phenanthren-17-yl)pentanamido)-N-cyclohexyl-4,8-dimethylnon-7-enamide]",IC50,[2],9.2 ± 0.8 µM
same,inhibition at 10 µM,[2],62.3 ± 0.2%
"O=C(NC1CCCCC1)C(c1ccccc1)N(Cc1ccccc1)C(=O)CCl (stereo not shown) [1b, N-Benzyl-2-chloro-N-(2-(cyclohexylamino)-2-oxo-1-phenylethyl)acetamide]",inhibition at 10 µM,[2],9.2 ± 2%
Nc1ccc2ccc3cccc4ccc1c2c34 [1-Aminopyrene],inhibition at 10 µM,[2]; read-out: % Inhibition (10 μM),5.6 ± 1%
"O=C(NC1CCCCC1)C(c1ccccc1)N(C(=O)CCl)c1ccc2ccc3cccc4ccc1c2c34 (stereo not shown) [1g, 2-Chloro-N-(2-(cyclohexylamino)-2-oxo-1-phenylethyl)-N-(pyren-1-yl)acetamide]",IC50,[2],4.5 ± 0.3 µM
same,inhibition at 10 µM,[2],83.7 ± 1.8%
"CC(=O)N(Cc1ccccc1)C(CC(C)CCC=C(C)C)C(=O)NCS(=O)(=O)c1ccc(C)cc1 (racemic) [compound 2, Ugi adduct 2]",% Inhibition (10 μM)^a,[3],9.2 ± 1.6%
"O=C(CCl)N(Cc1ccccc1)C1(C(=O)NC2CCCCC2)CCCC1 [1e, 1-(N-Benzyl-2-chloroacetamido)-N-cyclohexylcyclopentane-1-carboxamide]",inhibition at 10 µM,[2],0.2 ± 0.8%
[C-]#[N+]CS(=O)(=O)c1ccc(C)cc1 [TosMIC],inhibition at 10 µM,[2]; read-out: % Inhibition (10 μM),0.5 ± 0.5%
CCCCCC[C@@H](O)C/C=C\CCCCCCCC(=O)O [(R)-Ricinoleic acid],inhibition at 10 µM,[2]; read-out: % Inhibition (10 μM),3 ± 0.9%
"CC1=C(C(C(=O)NC2CCCCC2)N(Cc2ccccc2)C(=O)CCl)C(C)(C)CCC1 (stereo not shown) [1d, N-Benzyl-2-chloro-N-(2-(cyclohexylamino)-2-oxo-1-(2,6,6-trimethylcyclohex-1-en-1-yl)ethyl)acetamide]",inhibition at 10 µM,[2],8.9 ± 2.1%
"CC(=O)N(Cc1ccccc1)C(C(=O)NC1CCCCC1)c1ccccc1 (stereo not shown) [1h, 2-(N-Benzylacetamido)-N-cyclohexyl-2-phenylacetamide]",inhibition at 10 µM,[2],2.4 ± 1.6%

# — PMC9481608, “Synthesis of natural product hybrids by the Ugi reaction in complex media containing plant extracts” (Scientific Reports, 2022)
